Measured values as given in patent publication US6893834B2, “Assay for kinases and phosphatases” (Promega Corporation, priority 2000, dated 2005).

How the values were obtained:
PI-5K = assay: Reaction specificity of PI-5K toward lipid substrates; format: biochemical; conditions: purified PI-5K 125 ng/ml, 15 min, room temperature; FIG. 9
Experimental: FIG. 9: Reaction specificity toward lipid substrates. Reactions according to the subject invention were performed with purified PI4P-5K (250 ng/ml) for 45 min at room temperature using 1 μg of different lipid substrates: PI3,4P (lane 1); PI3,5P2 (lane 2) and PI4,5P2 (lane 3). In addition to lipid substrates, all samples contained 10 μg of PS loaded on the membrane.
Lipids, 10 μg of PI4,5P2+20 μg of PS, were dissolved in chloroform:methanol (2:1) and loaded onto “SAM2”-brand membranes for PI-3K activity measurements. Likewise, 10 μg of PI4P was loaded onto “SAM2”-brand membranes for PI4P-5K activity measurements. The membranes were air dried and a reaction mixture containing 50 mM HEPES/NaOH, pH7.5, 100 mM NaCl, 10 mM MgCl2, 20 ng partially-purified PI-3K or 10 ng of purified PI4P-5K, 50 μM ATP supplemented with 1 μCi of γ-^32P-ATP was added onto the membrane containing the immobilized lipids.
Following incubation at room temperature, the reactions were stopped with 7.5 M guanidine chloride and the membranes were washed with 2M NaCl, followed by 2 M NaCl/1% H3PO4. The washed membranes were dried and subjected to scintillation counting.
This Example illustrates the reaction specificity toward lipid substrates. Here, a reaction was performed with purified PI-5K (125 ng/ml) for 15 min at room temperature using different lipid substrates: PI3,4P (lane 1); PI3,5P (lane 2) and PI4,5P2 (Lane 3).

3T3 NIH cells = assay: PI-3K activity associated with activated receptor in PDGF-stimulated 3T3 NIH cells; format: cell-based; conditions: PDGF 50 ng/ml, 5 min, 37° C.; reaction 60 min, PI4,5P2 (10 μg) + PS (20 μg); FIG. 3
Experimental: FIG. 3: Detection of PI-3K activity associated with activated receptor. 3T3NIH cells (5×10^7 cells) were treated without (lane 1) or with (lane 2) PDGF (50 ng/ml for 5 min at 37° C.) and PI-3K was co-immunoprecipitated using anti-phosphotyrosine specific antibodies. The PI-3K reactions were run for 60 min using PIP2 (10 μg)+PS (20 μg) as substrates.
In resting cells, PI-3K is located in the cytosol. However, upon cell stimulation, the enzyme is recruited to the plasma membrane where it is associated with particular receptors and is involved in further propagation of the signal. This example illustrates that the described method allows to measure PI-3K activity associated with activated receptor. 3T3 NIH cells (0.5×10^7 cells) were starved oveminght in serum-free medium. PDGF (50 ng/ml) was added to the starved cells and the induction was carried out for 5 min at 37° C. Following the PDGF induction, cells were washed once with PBS while on the plate, scraped into PBS, transferred to a centrifuge tube, pelleted by centrifugation. The cell pellet was lysed and activated receptor-PI-3K complex was iminunoprecipitated using anti-phosphotyrosine specific antibodies. The PI-3K reaction was run for 60 min using PI4,5P2 (10 μg) as substrate, immobilized on “SAM2”-brand membranes, together with 20 μg of carrier lipid (PS).

Row | Substance | substrate for PI-5K (phosphorylation, CPM) (PI-5K) | PI-3K activity co-immunoprecipitated with anti-phosphotyrosine antibodies (3T3 NIH cells)
1 | D-myo-phosphatidylinositol 4,5-bisphosphate [PI4,5P] | not substrates | –
2 | D-myo-phosphatidylinositol 3,5-bisphosphate [PI3,5P] | not substrates | –
3 | platelet-derived growth factor [PDGF] | – | increase in PI-3K activity
4 | D-myo-phosphatidylinositol 3,4-bisphosphate [PI3,4P] | suitable substrate | –
